# Where a name gives a salt, the structure may show the parent alone.
# Legend:
# [1] = Hygroscopicity by Dynamic Vapor Sorption (DVS); format: physicochemical; details: 25° C.
# Description: (§1) The hygroscopicity of the products of Reference Example 1 and Example 3 were tested using Dynamic Vapor Sorption (DVS). Surface Measurement Systems Ltd. Dynamic Vapour Sorption Advantage Equipment was used employing a 10% RH change at 25° C. starting at 40% RH and looping from 0% RH to 90% RH and back to 0% RH twice. […] Two full cycles from 0% RH to 90% RH were carried out. The percent mass increase with respect to the sample mass of the first exposure to 0% RH (dry weight) was calculated and is presented in Table 7. […] Also, a decrease in mass is noted at 80% RH consistent with a solid-state change, occurs at these conditions.
# [2] = Solid-state physical stability: PXRD after the DVS run / exposure to high RH; format: physicochemical; details: for physical stability / structural change on water sorption (in words): DVS 0-90% RH, PXRD after the run
# Description: as §1
structure (smiles),measurement,setting,value
"Cc1ncnc2c1ccn2[C@@H]1C[C@H](Oc2cc(C(F)F)c(F)c3c2CNCC3)[C@@H](O)[C@H]1O [di HCl, (1S,2S,3S,5R)-3-((6-(difluoromethyl)-5-fluoro-1,2,3,4-tetrahydroisoquinolin-8-yl)oxy)-5-(4-methyl-7H-pyrrolo[2,3-d]pyrimidin-7-yl)cyclopentane-1,2-diol (di) hydrochloride]",% Mass-Ref Dry mass,"[1]; 0% RH, relative to mass at first exposure to 0% RH",0.0%
same,hygroscopicity (in words),[1]; 0-90% RH,very hygroscopic
same,% Mass-Ref Dry mass,"[1]; 10% RH, hydrochloride",2.9%
same,% Mass-Ref Dry mass,"[1]; 20% RH, hydrochloride",4.0%
same,% Mass-Ref Dry mass,"[1]; 30% RH, hydrochloride",4.9%
same,% Mass-Ref Dry mass,"[1]; 40% RH, hydrochloride",6.0%
same,% Mass-Ref Dry mass,"[1]; 50% RH, hydrochloride",7.6%
same,% Mass-Ref Dry mass,"[1]; 60% RH, hydrochloride",10.4%
same,% Mass-Ref Dry mass,"[1]; 70% RH, hydrochloride",14.7%
same,% Mass-Ref Dry mass,"[1]; 70% RH, listed as diHCl salt, hydrochloride",14.7%
same,% Mass-Ref Dry mass,"[1]; 80% RH, hydrochloride",12.0%
same,% Mass-Ref Dry mass,"[1]; 90% RH, hydrochloride",12.0%
same,physical stability / structural change on water sorption (in words),"[2]; listed as di-HCL salt, hydrochloride",not physically stable
same,relative humidity at which the amorphous salt crystallizes,"[2]; PXRD after DVS run, 25° C.",≥ 80 % RH
"Cc1ncnc2c1ccn2[C@@H]1C[C@H](Oc2cc(C(F)F)c(F)c3c2CNCC3)[C@@H](O)[C@H]1O [Phosphate, (1S,2S,3S,5R)-3-((6-(difluoromethyl)-5-fluoro-1,2,3,4-tetrahydroisoquinolin-8-yl)oxy)-5-(4-methyl-7H-pyrrolo[2,3-d]pyrimidin-7-yl)cyclopentane-1,2-diol monophosphate hydrate]",% Mass-Ref Dry mass,"[1]; 10% RH, monophosphate hydrate",3.4%
same,% Mass-Ref Dry mass,"[1]; 20% RH, monophosphate hydrate",3.7%
same,% Mass-Ref Dry mass,"[1]; 30% RH, monophosphate hydrate",3.9%
same,% Mass-Ref Dry mass,"[1]; 40% RH, monophosphate hydrate",4.1%
same,% Mass-Ref Dry mass,"[1]; 50% RH, monophosphate hydrate",4.3%
same,% Mass-Ref Dry mass,[1]; 60% RH,4.5%
same,% Mass-Ref Dry mass,"[1]; 70% RH, listed as Example 3 phosphate salt, monophosphate hydrate",4.57%
same,% Mass-Ref Dry mass,"[1]; 70% RH, monophosphate hydrate",4.6%
same,% Mass-Ref Dry mass,"[1]; 80% RH, monophosphate hydrate",4.7%
same,% Mass-Ref Dry mass,"[1]; 90% RH, monophosphate hydrate",4.8%
same,physical stability / structural change on water sorption (in words),"[2]; listed as Example 3 phosphate salt, monophosphate hydrate",no structural changes caused by the water sorption

# From patent US20210387992A1, “POLYMORPH FORM OF A MONOPHOSPHATE HYDRATE SALT OF A KNOWN TETRAHYDROISOQUINOLINE DERIVATIVE” (Pfizer Inc., priority 2019, published 2021)
